Measurements taken from patent US20230131966A1, “FUNGICIDAL AMIDES” (FMC Corporation, priority 2020, published 2023).

Key:
Format in all cases: in vivo
[1] = system: Phakopsora pachyrhizi; assay: Test A: Asian soybean rust control on soybean seedlings; details: 250 ppm, soybean seedlings, 100 = 100% disease control, 0 = no control; for pest or weed control at 250 ppm: Phakopsora pachyrhizi, read-out: Test A disease control rating
[2] = system: Puccinia recondita f. sp. tritici; assay: Test B: wheat leaf rust control on wheat seedlings; details: 250 ppm, wheat seedlings, 100 = 100% disease control, 0 = no control
[3] = system: Zymoseptoria tritici; assay: Test C: wheat leaf blotch control on wheat seedlings; details: 250 ppm, wheat seedlings, 100 = 100% disease control, 0 = no control
[4] = system: Plasmopara viticola; assay: Test D: grape downy mildew control on grape seedlings; details: 250 ppm, 100 = 100% disease control, 0 = no control
[5] = system: Botrytis cinerea; assay: Test E: tomato Botrytis control on tomato seedlings; details: 250 ppm, 100 = 100% disease control, 0 = no control; for pest or weed control at 250 ppm: Botrytis cinerea, read-out: Test E disease control rating
[6] = system: Phytophthora infestans; assay: whole plant or invertebrate; details: tomato seedlings, 100 = 100% disease control, 0 = no control; for pest or weed control at 250 ppm: Phytophthora infestans, in Solanum lycopersicum, read-out: Test F disease control rating, 250 ppm; for Test F disease control rating: 250 ppm
[7] = system: Erysiphe graminis f. sp. tritici; assay: Test G: wheat powdery mildew control on wheat seedlings; details: 250 ppm, 100 = 100% disease control, 0 = no control; for pest or weed control at 250 ppm: Blumeria graminis, read-out: Test G disease control rating

SMILES	pest or weed control at 250 ppm [1] [%]	pest or weed control at 250 ppm ([2]; Puccinia recondita, read-out: Test B disease control rating) [%]	pest or weed control at 250 ppm ([3]; Zymoseptoria tritici, read-out: Test C disease control rating) [%]	pest or weed control at 250 ppm ([4]; Plasmopara viticola, read-out: Test D disease control rating) [%]	pest or weed control at 250 ppm [5] [%]	pest or weed control at 250 ppm [6] [%]	pest or weed control at 250 ppm [7] [%]	Test B disease control rating [2] [%]	Test C disease control rating [3] [%]	Test D disease control rating [4] [%]	Test A disease control rating [1] [%]	Test E disease control rating [5] [%]	Test F disease control rating [6] [%]	Test G disease control rating [7] [%]
COc1ccnc(C(=O)N[C@@H](C)C(=O)O[C@@H](C)c2ccc(C3CCCCC3)cc2)c1OC(C)=O [Compound 95, N-[[3-(acetyloxy)-4-methoxy-2-pyridinyl]carbonyl]-L-alanine (1S)-1-(4-cyclohexylphenyl)ethyl ester]	100	100	100	1	0	0	0	–	–	–	–	–	–	–
COc1ccnc(C(=O)NC(C)C(=O)OC(C)c2cccc3ccccc23)c1O (stereo not drawn) [Compound 113]	90	–	–	–	0	0	0	0	42	94	–	–	–	–
COc1ccnc(C(=O)NC(C)C(=O)OC(C)c2cccc3ccccc23)c1O (stereo not drawn) [Compound 114]	–	–	–	–	–	–	–	100	77	63	100	0	0	0
COc1ccnc(C(=O)N[C@@H](C)C(=O)OC(C)c2ccc(C(C)C)cc2)c1OC(C)=O (stereo partly drawn) [Compound 117]	–	–	–	–	–	–	–	100	94	71	100	0	0	0
COc1ccnc(C(=O)N[C@@H](C)C(=O)OC(C)c2ccc(C(C)C)cc2)c1O (stereo partly drawn) [Compound 118]	–	–	–	–	–	–	–	99	86	85	100	0	0	0
COc1ccnc(C(=O)N[C@@H](C)C(=O)OC(c2ccc(C3CCCCC3)cc2)C(F)(F)F)c1OC(C)=O (stereo partly drawn) [Compound 119]	–	–	–	–	–	–	–	99	88	27	100	0	0	48
COc1ccnc(C(=O)N[C@@H](C)C(=O)OC(c2ccc(C3CCCCC3)cc2)C(F)(F)F)c1O (stereo partly drawn) [Compound 120]	–	–	–	–	–	–	–	94	95	24	99	0	0	0
COc1ccnc(C(=O)N[C@@H](C)C(=O)OC(C)c2ccc(C(C)(C)C)cc2)c1OC(C)=O (stereo partly drawn) [Compound 121]	–	–	–	–	–	–	–	100	99	50	100	9	0	0
COc1ccnc(C(=O)N[C@@H](C)C(=O)OC(C)c2ccc(C(C)(C)C)cc2)c1O (stereo partly drawn) [Compound 123]	–	–	–	–	–	–	–	100	84	57	100	0	24	0
COc1ccnc(C(=O)N[C@@H](C)C(=O)OC(C)c2ccc(C3CCCCC3)cc2)c1OC(=O)c1ccccc1 (stereo partly drawn) [Compound 136]	–	–	–	–	–	–	–	90	0	4	60	0	0	0
COc1ccnc(C(=O)N[C@@H](C)C(=O)OC(C)c2cccc(OC3CCC(C)(C)CC3)c2)c1OC(C)=O (stereo partly drawn) [Compound 137]	–	–	–	–	–	–	–	100	92	11	100	0	0	43
COc1ccnc(C(=O)N[C@@H](C)C(=O)OC(C)c2cccc(OC3CCC(C)(C)CC3)c2)c1O (stereo partly drawn) [Compound 138]	–	–	–	–	–	–	–	74	63	18	95	0	0	0
